Measurements published in the NIST ThermoML archive (doi:10.1016/j.jct.2017.09.007).
Numbers after ± are expanded uncertainties.

What was measured:
[1] = Crystal; DTA
[2] = Molar enthalpy of transition or fusion; conditions: Crystal; DSC
[3] = molar heat capacity at constant pressure; conditions: 298.15 K, 100 kPa, Small sample (50 mg) DSC

Row | Normal melting temperature [1] [°C] | Molar enthalpy of transition or fusion [2] [kJ/mol] | molar heat capacity at constant pressure ([3]; Liquid) [J/K/mol] | molar heat capacity at constant pressure ([3]; Crystal) [J/K/mol] | SMILES
1 | 1.33 ± 0.53 | 24.2 ± 0.61 | 283.07 ± 4.4 | – | CCOC(=O)c1ccccc1O [ethyl 2-hydroxybenzoate]
2 | 72.23 ± 0.46 | 25.8 ± 0.61 | – | 217.22 ± 3.4 | CCOC(=O)c1cccc(O)c1 [ethyl 3-hydroxybenzoate]
3 | 115.70 ± 0.45 | 27.5 ± 0.63 | – | 233.93 ± 3.6 | CCOC(=O)c1ccc(O)cc1 [ethyl 4-hydroxybenzoate]
